Assay results taken from patent US20230158066A1, “ENCAPSULATED CARBONYL IRON SALT COMPOSITIONS AND PROCESS THEREOF” (priority 2020, published 2023).

Assay: Particle density (bulk density), USP <616> method 1
Type: physicochemical
Conditions: untapped powder, W/V0
Source text: Particle density or Bulk density is the density of the solids (determined by the composition), which determines the particle density, together with the amount of occluded air. It's the ratio of mass to volume (including the inter-particulate void volume) of an untapped powder sample. It depends on both the density of powder particle and arrangement of the particles. The bulk density influenced by preparation method, treatment and storage of the samples.
The method used as per the reference of USP general chapter <616> method 1. • 1. Pass a quantity of material sufficient to complete the test through sieve greater than equal to 1 mm, if necessary to break up agglomerates that may formed. • 2. Fill the test sample approx. 150 g with 0.1% accuracy (W) in dry gradual 250 mL cylinder (readable to 2 mL) carefully. • 3. Read the unsettled apparent volume (V0) to the nearest graduated unit. • 4. Calculate the particle density by following formula;

Compound	Particle density
Ferrous sulfate	1.26 g/mL
O=C([O-])/C=C/C(=O)[O-].[Fe+2] [Ferrous fumarate]	2.14 g/mL
Ferrous Ascorbate	0.75 g/mL
